Results taken from patent US9545461B2, “Anti-microbial peptides and methods of use thereof” (priority 2011, dated 2017).
Square brackets hold non-standard residues; d marks the D form. Ends that are not written are not given here. pY = N[C@@H](Cc1ccc(OP(=O)(O)O)cc1)C(=O)O

Experiments:
[1] = system: Streptococcus pyogenes (ATCC 19615); assay type: cell-based; conditions: 200 μg/mL, 3 h
Procedure: (§1) Telomerase-immortalized human corneal epithelial cells (TiHCE) were cultured as described (Robertson D M et al., 2005 Invest Ophthalmol Vis Sci. 46:470-478). Crude lysates of media-treated and human tear fluid-treated cells were collected by freeze-thawing in KBM or saline (for assays) or 10 mM Tris-HCl (pH 8.5) (for mass spectrometry). Serial fractionation of lysates was performed using centrifugal filters with cutoffs at ˜100, ˜10 and ˜3 kDa (Millipore). […] Synthetic peptides of hKRT6A were obtained from Biomatik at a purity of >95%. Antimicrobial activity against Pseudomonas aeruginosa clinical and laboratory isolates, as well as ATCC strains of Escherichia coli, Enterococcus faecalis, Serratia marcescens, Staphylococcus epidermidis, Staphylococcus aureus, Streptococcus pyogenes and Candida albicans (˜10^6 cfu/ml each) were evaluated by viable counts at 3 h. […] Statistical analysis between two groups was performed using Student's t-Test.
(§2) For antimicrobial spectrum analysis, Escherichia coli (ATCC 25922), Enterococcus faecalis (ATCC 51188), Serratia marcescens (ATCC 43862), Staphylococcus epidermidis (ATCC 12228), Staphylococcus aureus (ATCC 29213), Streptococcus pyogenes (ATCC 19615) and Candida albicans (ATCC 90028) were used. […] Starting inoculum at a concentration of ˜10^8 cfu/ml was prepared fresh by suspending bacteria in KBM media (Lonza) until OD650 reading is ˜0.1. […]

[2] = system: Staphylococcus aureus (ATCC 29213); assay: Antimicrobial spectrum analysis; assay type: cell-based; conditions: 200 μg/mL, 3 h
Procedure: as §1, §2

[3] = system: Staphylococcus epidermidis (ATCC 12228); assay: Antimicrobial spectrum analysis; assay type: cell-based; conditions: 200 μg/mL, 3 h
Procedure: (§3) Antimicrobial activity against Pseudomonas aeruginosa clinical and laboratory isolates, as well as ATCC strains of Escherichia coli, Enterococcus faecalis, Serratia marcescens, Staphylococcus epidermidis, Staphylococcus aureus, Streptococcus pyogenes and Candida albicans (˜10^6 cfu/ml each) were evaluated by viable counts at 3 h. Protection against bacterial invasion (quantified by gentamicin survival) and cytotoxicity (trypan blue staining) were assessed using fresh TiHCE cells inoculated with P. aeruginosa clinical isolates 6294 (invasive, ˜10^6 cfu for 2 h) or 6206 (cytotoxic, ˜10^4 cfu for 3 h). Peptide binding and membrane permeabilization by hKRT6A 19mer was determined by N-terminal TAMRA-tagged peptides (110 μM) and an impermeant SYTOX blue nucleic acid stain (5 μM; Invitrogen).
as §2

[4] = system: Enterococcus faecalis (ATCC 51188); assay: Antimicrobial spectrum analysis; assay type: cell-based; conditions: 200 μg/mL, 3 h
Procedure: as §3, §2

[5] = system: Escherichia coli (ATCC 25922); assay: Antimicrobial spectrum analysis; assay type: cell-based; conditions: 200 μg/mL, 3 h
Procedure: as §3, §2

[6] = system: Candida albicans (ATCC 90028); assay: Antimicrobial spectrum analysis; assay type: cell-based; conditions: 200 μg/mL, 3 h
Procedure: as §3, §2

[7] = system: Serratia marcescens (ATCC 43862); assay: Antimicrobial spectrum analysis; assay type: cell-based; conditions: 200 μg/mL, 3 h
Procedure: (§4) Crude lysates of media-treated and human tear fluid-treated cells were collected by freeze-thawing in KBM or saline (for assays) or 10 mM Tris-HCl (pH 8.5) (for mass spectrometry). Serial fractionation of lysates was performed using centrifugal filters with cutoffs at ˜100, ˜10 and ˜3 kDa (Millipore). […] Synthetic peptides of hKRT6A were obtained from Biomatik at a purity of >95%. Antimicrobial activity against Pseudomonas aeruginosa clinical and laboratory isolates, as well as ATCC strains of Escherichia coli, Enterococcus faecalis, Serratia marcescens, Staphylococcus epidermidis, Staphylococcus aureus, Streptococcus pyogenes and Candida albicans (˜10^6 cfu/ml each) were evaluated by viable counts at 3 h. […] Statistical analysis between two groups was performed using Student's t-Test.
(§5) Pseudomonas aeruginosa corneal clinical isolates 6294 (invasive) and 6206 (cytotoxic), cystic fibrosis clinical isolate 2192, laboratory strains PAO1 (invasive), PA14 (cytotoxic), PAC1R and its series of isogenic LPS mutants (PAC1R algC-, 557, 605, 611) were used in this study. […] Starting inoculum at a concentration of ˜10^8 cfu/ml was prepared fresh by suspending bacteria in KBM media (Lonza) until OD650 reading is ˜0.1. […]

[8] = Bactericidal effect of phosphorylated vs non-phosphorylated 19-mer (FIG. 6); assay type: cell-based
From the text: Synthetic 19-mer KDAMP peptides were synthesized with or without tyrosine phosphorylation. The bactericidal effect of the peptides was compared.

[9] = system: P. aeruginosa strain 6206; assay type: cell-based; conditions: Pseudomonas aeruginosa, 3 h, 200 μg/ml
Procedure: as §3, §2

[10] = system: P. aeruginosa clinical isolate 6294; assay type: cell-based; conditions: Pseudomonas aeruginosa, 3 h, 200 μg/ml
Procedure: as §4, §5

laboratory strain PAO1 = assay: Antimicrobial activity assay (viable counts at 3 h); assay type: cell-based, Pseudomonas aeruginosa; conditions: after 3 h, 200 μg/ml in 0.9% NaCl
Procedure: as §4, §5

laboratory strain PA14 = assay: as above; assay type: cell-based, Pseudomonas aeruginosa; conditions: 200 μg/ml (FIG. 2D)
Procedure: as §4, §5

[11] = system: P. aeruginosa clinical isolate 6206 cytotoxicity to TiHCE cells; assay: Cytotoxicity assay (trypan blue staining) in TiHCE cells; assay type: cell-based, Pseudomonas aeruginosa; conditions: 3 h
Procedure: To assess protective activity of against bacterial invasion, high-calcium treated TiHCE cells were incubated with P. aeruginosa clinical isolate 6294 (40 μl/well; 10^6 cfu/ml in crude lysates/lysate fractions versus KBM control for 3 h or 10^8 cfu/ml in peptide-containing saline versus no-peptide saline control for 2 h), followed by gentamicin treatment (200 μg/ml for 1 h). Viable intracellular bacteria was collected with 0.25% Triton-X in PBS (100 μl/well) and quantified by plating on TSA. To assay protection against bacterial cytotoxicity, P. aeruginosa clinical isolate 6206 was used instead (40 μl/well; 10^6 cfu/ml for 3 h). Dead cells were quantified by Trypan-blue (0.04%) staining.

[12] = system: human corneal epithelial cells (TiHCE); assay: Effect of peptide treatment alone on epithelial cells; assay type: cell-based
[13] = system: cystic fibrosis isolate 2192; conditions: Pseudomonas aeruginosa, 3 h, 200 μg/ml
Procedure: as §4, §5

AIGGGLSSVGGGSSTIK [17mer, AIGGGLSSVGGGSSTIK]
susceptibility (in words) [1]: not susceptible | activity (in words) [2]: neither the 19- nor the 17mer peptide was active | activity (in words) [3]: neither the 19- nor the 17mer peptide was active | activity (in words) [4]: neither the 19- nor the 17mer peptide was active | activity (in words) [5]: neither the 19- nor the 17mer peptide was active | activity (in words) [6]: neither the 19- nor the 17mer peptide was active | activity (in words) [7]: neither the 19- nor the 17mer peptide was active

RAIGGGLSSVGGGSSTIK(phospho-Y) (RAIGGGLSSVGGGSSTIK[pY]) [phosphorylated 19-mer]
bactericidal activity compared with the non-phosphorylated 19-mer [8]: significantly increased bactericidal activity

RAIGGGLSSVGGGSSTIKY [19mer, RAIGGGLSSVGGGSSTIKY]
reduced viability [9]: 99.7% | reduced viability [10]: 97.5% | reduced viability (laboratory strain PAO1): 96.1% | reduced viability (laboratory strain PA14): 98.7% | protection against bacterial induced cytotoxicity compared to controls [11]: 85.1% | impact of peptide treatment alone on epithelial cells (morphology, trypan blue exclusion) [12]: not visibly impacted | reduced viability [13]: 96.9%
